{"source": "paper PMC3509384", "about": "(Anesthesiology, 2012)", "key": {"rats": {"tested_on": "rats", "test": "Loss of righting reflexes", "format": "in vivo, Sprague-Dawley rats", "settings": "for Slope of Duration vs. Log Dose ± SD / ED50 ± SD for loss of righting reflexes (LORR) / R/S ED50 ratio: rats; for Slope of Duration vs. Log Dose ± SD: duration of LORR vs logarithm of dose; for Slope of Duration vs. Log Dose ± SD / ED50 ± SD for loss of righting reflexes (LORR) / death of rat after dosing: intravenous bolus; for ED50 ± SD for loss of righting reflexes (LORR): method of Waud; for death of rat after dosing: one rat, 20 mg/kg dose; for R/S ED50 ratio: ED50 for LORR of (R)-form versus (S)-form of the diastereometric pair"}, "[1]": {"test": "Octanol:water partition coefficient", "format": "physicochemical", "settings": "water buffered with 10 mM Tris (pH 7.4)"}, "[2]": {"test": "In vitro metabolic half-life in pooled rat blood", "format": "in vitro ADME, Sprague-Dawley rats", "settings": "for Blood Half-Life (95% CI): pooled rat blood, 37°C, 200 µM"}, "[3]": {"settings": "ref Pejo et al.[8]; cited from earlier work"}}, "note": "Read-outs that look alike come from different tables or passages of the source."}
{"compound": "COC(=O)CC(C)(C)OC(=O)c1cncn1C(C)c1ccccc1", "note": "(stereo not drawn) [β-dimethyl- methoxycarbonyl etomidate]", "values": [{"measurement": "Slope of Duration vs. Log Dose ± SD", "setting": "rats", "value": "11.9 ± 0.6 min/(log mg/kg)"}, {"measurement": "ED50 ± SD for loss of righting reflexes (LORR)", "setting": "rats", "value": "1.9 ± 0.3", "unit": "mg/kg"}, {"measurement": "Octanol/Water Partition Coefficient ± SD", "setting": "[1]", "value": "1580 ± 40"}, {"measurement": "Blood Half-Life (95% CI)", "setting": "[2]", "value": "23.4 (19.6–28.9) min"}]}
{"compound": "COC(=O)C[C@H](C)OC(=O)c1cncn1[C@H](C)c1ccccc1", "note": "[β-(S)-methyl- methoxycarbonyl etomidate]", "values": [{"measurement": "Slope of Duration vs. Log Dose ± SD", "setting": "rats", "value": "2.0 ± 0.5 min/(log mg/kg)"}, {"measurement": "ED50 ± SD for loss of righting reflexes (LORR)", "setting": "rats", "value": "2.9 ± 0.3", "unit": "mg/kg"}, {"measurement": "Octanol/Water Partition Coefficient ± SD", "setting": "[1]", "value": "484 ± 12"}, {"measurement": "Blood Half-Life (95% CI)", "setting": "[2]", "value": "0.72 (0.56–0.98) min"}]}
{"compound": "COC(=O)CCOC(=O)c1cncn1[C@H](c1ccccc1)C(C)C", "note": "[(S)-isopropyl- methoxycarbonyl metomidate]", "values": [{"measurement": "Slope of Duration vs. Log Dose ± SD", "setting": "rats", "value": "12.1 ± 1.1 min/(log mg/kg)"}, {"measurement": "ED50 ± SD for loss of righting reflexes (LORR)", "setting": "rats", "value": "1.2 ± 0.19", "unit": "mg/kg"}, {"measurement": "Octanol/Water Partition Coefficient ± SD", "setting": "[1]", "value": "2860 ± 67"}, {"measurement": "Blood Half-Life (95% CI)", "setting": "[2]", "value": "15.5 (11.6–23.1) min"}]}
{"compound": "COC(=O)C(C)(C)OC(=O)c1cncn1[C@H](C)c1ccccc1", "note": "[Dimethyl- methoxycarbonyl metomidate]", "values": [{"measurement": "death of rat after dosing", "setting": "rats", "value": "died"}, {"measurement": "Slope of Duration vs. Log Dose ± SD", "setting": "rats", "value": "9.6 ± 0.8 min/(log mg/kg)"}, {"measurement": "ED50 ± SD for loss of righting reflexes (LORR)", "setting": "rats", "value": "0.72 ± 0.16", "unit": "mg/kg"}, {"measurement": "Octanol/Water Partition Coefficient ± SD", "setting": "[1]", "value": "660 ± 110"}, {"measurement": "Blood Half-Life (95% CI)", "setting": "[2]", "value": "8.7 (7.4–10.7) min"}]}
{"compound": "COC(=O)C[C@@H](C)OC(=O)c1cncn1[C@H](C)c1ccccc1", "note": "[β-(R)-methyl- methoxycarbonyl etomidate]", "values": [{"measurement": "Slope of Duration vs. Log Dose ± SD", "setting": "rats", "value": "2.9 ± 0.8 min/(log mg/kg)"}, {"measurement": "ED50 ± SD for loss of righting reflexes (LORR)", "setting": "rats", "value": "3.5 ± 0.6", "unit": "mg/kg"}, {"measurement": "Octanol/Water Partition Coefficient ± SD", "setting": "[1]", "value": "500 ± 24"}, {"measurement": "Blood Half-Life (95% CI)", "setting": "[2]", "value": "0.91 (0.76–1.1) min"}]}
{"compound": "α-methyl-methoxycarbonyl etomidate", "values": [{"measurement": "R/S ED50 ratio", "setting": "rats", "value": 1.7}]}
{"compound": "CCOC(=O)c1cncn1[C@H](C)c1ccccc1", "note": "[Etomidate, (R)-ethyl-1-(1-phenylethyl)-1H-imidazole-5-carboxylate, reference compound]", "values": [{"measurement": "Slope of Duration vs. Log Dose ± SD", "setting": "rats", "value": "24.6 ± 4.7 min/(log mg/kg)"}, {"measurement": "Octanol/Water Partition Coefficient ± SD", "setting": "[3]", "value": "800 ± 180"}]}
{"compound": "COC(=O)[C@H](C)OC(=O)c1cncn1[C@H](C)c1ccccc1", "note": "[(S)-methyl- methoxycarbonyl metomidate]", "values": [{"measurement": "Slope of Duration vs. Log Dose ± SD", "setting": "rats", "value": "1.9 ± 0.2 min/(log mg/kg)"}, {"measurement": "ED50 ± SD for loss of righting reflexes (LORR)", "setting": "rats", "value": "3.5 ± 0.4", "unit": "mg/kg"}, {"measurement": "Octanol/Water Partition Coefficient ± SD", "setting": "[1]", "value": "330 ± 16"}, {"measurement": "Blood Half-Life (95% CI)", "setting": "[2]", "value": "0.14 (0.08–0.62) min"}]}
{"compound": "Cyclopropyl- methoxycarbonyl metomidate", "values": [{"measurement": "Slope of Duration vs. Log Dose ± SD", "setting": "rats", "value": "6.9 ± 0.5 min/(log mg/kg)"}, {"measurement": "ED50 ± SD for loss of righting reflexes (LORR)", "setting": "rats", "value": "0.69 ± 0.04", "unit": "mg/kg"}, {"measurement": "Octanol/Water Partition Coefficient ± SD", "setting": "[1]", "value": "420 ± 11"}, {"measurement": "Blood Half-Life (95% CI)", "setting": "[2]", "value": "0.57 (0.49–0.68) min"}]}
{"compound": "COC(=O)COC(=O)c1cncn1[C@H](C)c1ccccc1", "note": "[Methoxycarbonyl metomidate]", "values": [{"measurement": "Slope of Duration vs. Log Dose ± SD", "setting": "rats", "value": "1.6 ± 0.4 min/(log mg/kg)"}, {"measurement": "ED50 ± SD for loss of righting reflexes (LORR)", "setting": "rats", "value": "11.1 ± 0.8", "unit": "mg/kg"}, {"measurement": "Octanol/Water Partition Coefficient ± SD", "setting": "[1]", "value": "159 ± 15"}, {"measurement": "Blood Half-Life (95% CI)", "setting": "[2]", "value": "<0.03", "unit": "min"}]}
{"compound": "COC(=O)[C@@H](C)COC(=O)c1cncn1[C@H](C)c1ccccc1", "note": "[α-(S)-methyl- methoxycarbonyl etomidate]", "values": [{"measurement": "Slope of Duration vs. Log Dose ± SD", "setting": "rats", "value": "2.4 ± 0.3 min/(log mg/kg)"}, {"measurement": "ED50 ± SD for loss of righting reflexes (LORR)", "setting": "rats", "value": "3.1 ± 0.4", "unit": "mg/kg"}, {"measurement": "Octanol/Water Partition Coefficient ± SD", "setting": "[1]", "value": "530 ± 170"}, {"measurement": "Blood Half-Life (95% CI)", "setting": "[2]", "value": "0.76 (0.58–1.0) min"}]}
{"compound": "COC(=O)C(OC(=O)c1cncn1C(C)c1ccccc1)C(C)C", "note": "(stereo not drawn) [isopropyl-methoxycarbonyl metomidate]", "values": [{"measurement": "R/S ED50 ratio", "setting": "rats", "value": 3.0}]}
{"compound": "COC(=O)[C@@H](C)OC(=O)c1cncn1[C@H](C)c1ccccc1", "note": "[(R)-methyl- methoxycarbonyl metomidate]", "values": [{"measurement": "Slope of Duration vs. Log Dose ± SD", "setting": "rats", "value": "4.6 ± 0.7 min/(log mg/kg)"}, {"measurement": "ED50 ± SD for loss of righting reflexes (LORR)", "setting": "rats", "value": "9.6 ± 1.9", "unit": "mg/kg"}, {"measurement": "Octanol/Water Partition Coefficient ± SD", "setting": "[1]", "value": "380 ± 15"}, {"measurement": "Blood Half-Life (95% CI)", "setting": "[2]", "value": "<0.03", "unit": "min"}]}
{"compound": "COC(=O)C(C)(C)COC(=O)c1cncn1[C@H](C)c1ccccc1", "note": "[α-dimethyl- methoxycarbonyl etomidate]", "values": [{"measurement": "Slope of Duration vs. Log Dose ± SD", "setting": "rats", "value": "9.8 ± 1.5 min/(log mg/kg)"}, {"measurement": "ED50 ± SD for loss of righting reflexes (LORR)", "setting": "rats", "value": "2.4 ± 1", "unit": "mg/kg"}, {"measurement": "Octanol/Water Partition Coefficient ± SD", "setting": "[1]", "value": "2240 ± 150"}, {"measurement": "Blood Half-Life (95% CI)", "setting": "[2]", "value": "2.6 (1.9–4.2) min"}]}
{"compound": "β-methyl-methoxycarbonyl etomidate", "values": [{"measurement": "R/S ED50 ratio", "setting": "rats", "value": 1.2}]}
{"compound": "COC(=O)CCOC(=O)c1cncn1[C@H](C)c1ccccc1", "note": "[Methoxycarbonyl etomidate]", "values": [{"measurement": "Slope of Duration vs. Log Dose ± SD", "setting": "rats", "value": "1.0 ± 0.3 min/(log mg/kg)"}, {"measurement": "ED50 ± SD for loss of righting reflexes (LORR)", "setting": "rats", "value": "5.3 ± 1.5", "unit": "mg/kg"}, {"measurement": "Octanol/Water Partition Coefficient ± SD", "setting": "[1]", "value": "190 ± 25"}, {"measurement": "Blood Half-Life (95% CI)", "setting": "[2]", "value": "0.41 (0.31–0.60) min"}]}
{"compound": "COC(=O)[C@H](C)COC(=O)c1cncn1[C@H](C)c1ccccc1", "note": "[α-(R)-methyl- methoxycarbonyl etomidate]", "values": [{"measurement": "Slope of Duration vs. Log Dose ± SD", "setting": "rats", "value": "2.6 ± 0.3 min/(log mg/kg)"}, {"measurement": "ED50 ± SD for loss of righting reflexes (LORR)", "setting": "rats", "value": "5.2 ± 0.5", "unit": "mg/kg"}, {"measurement": "Octanol/Water Partition Coefficient ± SD", "setting": "[1]", "value": "670 ± 120"}, {"measurement": "Blood Half-Life (95% CI)", "setting": "[2]", "value": "0.19 (0.17–0.22) min"}]}
{"compound": "COC(=O)c1cncn1C(C)c1ccccc1", "note": "(stereo not drawn) [Metomidate, reference compound]", "values": [{"measurement": "Slope of Duration vs. Log Dose ± SD", "setting": "rats", "value": "33.0 ± 3.9 min/(log mg/kg)"}, {"measurement": "half-life at 200 µM", "setting": "[2]; Sprague-Dawley, rat, pooled heparinised whole blood", "value": 2.38, "unit": "h"}]}
{"compound": "COC(=O)CCOC(=O)c1cncn1[C@@H](c1ccccc1)C(C)C", "note": "[(R)-isopropyl- methoxycarbonyl metomidate]", "values": [{"measurement": "death of rat after dosing", "setting": "rats", "value": "died"}, {"measurement": "Slope of Duration vs. Log Dose ± SD", "setting": "rats", "value": "6.6 ± 1.3 min/(log mg/kg)"}, {"measurement": "ED50 ± SD for loss of righting reflexes (LORR)", "setting": "rats", "value": "3.6 ± 0.8", "unit": "mg/kg"}, {"measurement": "Octanol/Water Partition Coefficient ± SD", "setting": "[1]", "value": "3830 ± 310"}, {"measurement": "Blood Half-Life (95% CI)", "setting": "[2]", "value": "0.15 (0.15–0.16) min"}]}
{"compound": "methyl-methoxycarbonyl metomidate", "values": [{"measurement": "R/S ED50 ratio", "setting": "rats", "value": 2.7}]}
